“And” between values parts separate entries of the source, which are not always exact repeats. Equal values may be shown once.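 A five-concentration, 48-hour dose response in 96-well plates underlies each endpoint, interpolated linearly between surrounding concentrations. Abbreviation: GI50, concentration required for 50% inhibition of growth. The concentration for full growth arrest is given as TGI.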
Columns and labels:
Assay in all cases: NCI tumour cell line growth inhibition, 48 h
[1] = test system: A549 NSCLC
[2] = test system: M19-MEL melanoma
[3] = test system: OVCAR-3 ovarian
[4] = test system: SF-295 CNS
[5] = test system: SK-MEL-2 melanoma
[6] = test system: U251 CNS
[7] = test system: UO-31 renal
[8] = test system: A498 renal
[9] = test system: CAKI-1 renal
[10] = test system: RPMI-8226 leukemia

Cc1ccc(-n2c(C)nc3c2C(=O)c2ccccc2C3=O)cc1
TGI [1]: > 100 µM | TGI [2]: 25.7 µM | TGI [3]: 73.2 µM | TGI [4]: > 100 µM | TGI [5]: > 100 µM | TGI [6]: > 100 µM | TGI [7]: > 100 µM

c1cc2c(cnc3cscc32)s1
TGI [8]: > 100 µM | TGI [1]: > 100 µM | TGI [9]: > 100 µM | TGI [2]: > 100 µM | TGI [3]: > 100 µM | TGI [10]: > 100 µM | TGI [4]: > 100 µM | TGI [5]: > 100 µM | TGI [6]: > 100 µM | TGI [7]: > 100 µM

CC1=C2N3C[C@@H](n4c(=O)n(C)c(=O)n43)C23CCC1n1c(=O)n(C)c(=O)n13
TGI [8]: > 100 µM | TGI [9]: > 100 µM | TGI [2]: > 100 µM | TGI [10]: > 100 µM | TGI [4]: > 100 µM | TGI [7]: > 100 µM

Cn1c(=O)c2c(nc3n2CCC(=O)N3)n(C)c1=O
TGI [8]: > 100 µM | TGI [1]: > 100 µM | TGI [9]: > 100 µM | TGI [2]: > 100 µM | TGI [4]: > 100 µM | TGI [5]: > 100 µM | TGI [6]: > 100 µM | TGI [7]: > 100 µM

CCCCS(=N)(=O)CC[C@H](N)C(=O)O (stereo not given in full)
GI50 [8]: > 10000 µM | TGI [8]: 5000 µM and > 10000 µM | GI50 [1]: > 8030 µM | TGI [1]: > 10000 µM | GI50 [9]: > 1080 µM | TGI [9]: 5000 µM and > 1330 µM | TGI [2]: > 5000 µM | GI50 [3]: > 10000 µM | TGI [3]: > 10000 µM | GI50 [10]: > 8560 µM | TGI [10]: 4730 µM and > 10000 µM | TGI [4]: > 10000 µM | GI50 [5]: > 7640 µM | TGI [5]: > 10000 µM | GI50 [6]: > 10000 µM | TGI [6]: > 10000 µM | GI50 [7]: > 10000 µM | TGI [7]: 2700 µM and > 10000 µM

Cc1ccc(C)c(NC(=O)/C(=N\NC(N)=S)C(C#N)c2ccccc2)c1 (stereo not given)
TGI [8]: > 100 µM | TGI [1]: > 100 µM | TGI [9]: > 100 µM | TGI [2]: > 100 µM | TGI [3]: > 100 µM | TGI [10]: > 100 µM | TGI [4]: > 100 µM | TGI [5]: > 100 µM | TGI [6]: > 100 µM | TGI [7]: > 100 µM

O=C(O)c1[nH]c(C(=O)O)c(CC(F)(F)C(F)(F)C(F)(F)F)c1CC(F)(F)C(F)(F)C(F)(F)F
TGI [8]: > 100 µM | TGI [1]: > 100 µM | TGI [9]: > 100 µM | TGI [2]: > 100 µM | TGI [3]: > 100 µM | TGI [10]: > 100 µM | TGI [4]: > 100 µM | TGI [6]: > 100 µM | TGI [7]: > 100 µM

C=CCN(N=O)C(=O)N(CCC)CCCC(NC(C)=O)C(=O)NCc1ccccc1 (stereo not given)
TGI [8]: > 100 µM | TGI [1]: > 100 µM | TGI [9]: > 100 µM | TGI [2]: > 100 µM | TGI [3]: > 100 µM | TGI [10]: > 100 µM | TGI [4]: > 100 µM | TGI [5]: > 100 µM | TGI [6]: > 100 µM | TGI [7]: > 100 µM

Cc1cc2occ(C)c(=O)c2c2c1OC(C)(C)S2
TGI [1]: > 100 µM | TGI [2]: > 100 µM | TGI [3]: > 100 µM | TGI [10]: > 100 µM | TGI [4]: > 100 µM | TGI [5]: > 100 µM | TGI [6]: > 100 µM | TGI [7]: > 100 µM

CC(C)(C)N=CN1CCC(C(c2ccccc2)c2ccccc2)CC1
TGI [8]: > 100 µM | TGI [1]: > 100 µM | TGI [9]: > 100 µM | TGI [2]: > 100 µM | TGI [3]: > 100 µM | TGI [10]: > 100 µM | TGI [4]: > 100 µM | TGI [5]: > 100 µM | TGI [6]: > 100 µM

CCOC(=O)/C=C(/CN1C(=O)c2ccccc2C1=O)c1ccccc1
TGI [8]: > 100 µM | TGI [1]: > 100 µM | TGI [9]: > 100 µM | TGI [2]: > 100 µM | TGI [3]: > 100 µM | TGI [10]: > 100 µM | TGI [4]: > 100 µM | TGI [5]: > 100 µM | TGI [6]: > 100 µM | TGI [7]: > 100 µM

Source: PubChem BioAssay (NCI)
